The values below come from PMC9904497 (2023).

The structures appear in SMILES notation.

Assay [1] deals with PQS-675-WT-CY5 (RNA, G4) GGGCGGGCGGCCUGCAGGGACAUGGG
Briefly: microscale thermophoresis (MST). The following applies: 150 mM KCl; 10 mM Tris-HCl pH 7.5 folding buffer; BBM stock 80 µM mixed 1:1.

Assay [2] relates to PQS-2302-WT-CY5 (RNA, G4) GGGGAGGAGG
Briefly: microscale thermophoresis (MST). The following applies: 150 mM KCl; 10 mM Tris-HCl pH 7.5 folding buffer; BBM stock 80 µM mixed 1:1. In general terms: MST reads how a fluorescent partner responds to local heating, with and without ligand.

In assay [3] the test system is TERRA-WT-CY5 (RNA, G4) UUAGGGUUAGGGUUAGGGUUAGGG
Briefly: microscale thermophoresis (MST). The following applies: 150 mM KCl; 10 mM Tris-HCl pH 7.5 folding buffer; BBM stock 80 µM mixed 1:1.

Assay [4] deals with PQS-1276-WT (RNA, G4) GGGCCUCGGGGAACGGGGGCCGGG
Briefly: fluorescence enhancement. The following applies: 150 mM KCl; 10 mM Tris-HCl pH 7.5; 2 µM RNA, 2 µM dye; higher than in LiCl.

For assay [5], the system named is PQS-1682-WT (RNA, G4) GGAGGUGGAUGG
Briefly: fluorescence enhancement. The following applies: 150 mM KCl; 10 mM Tris-HCl pH 7.5; 2 µM RNA, 2 µM dye.

The test system of assay [6] is PQS-2302-WT (RNA, G4) GGGGAGGAGG
Briefly: fluorescence enhancement. The settings on record: 150 mM KCl; 10 mM Tris-HCl pH 7.5; 2 µM RNA, 2 µM dye; higher than in LiCl.

For assay [7], the system named is PQS-91-WT (RNA, G4) GGGGGGAGGGCCGGG
Briefly: fluorescence enhancement. The settings on record: 150 mM KCl, 10 mM Tris-HCl pH 7.5, 2 µM RNA, 2 µM dye.

Assay [8] relates to PQS-1234-WT (RNA, G4) GGGUUAGCCAGGGCCGAGGGGGGCUGGG
Briefly: fluorescence enhancement. The following applies: 150 mM KCl; 10 mM Tris-HCl pH 7.5; 2 µM RNA, 2 µM dye; higher than in LiCl.

For the compound `COc1cc2c3cc1Oc1c(OC)c(OC)cc4c1[C@@H](Cc1ccc(O)c(c1)Oc1ccc(cc1)C[C@@H]3N(C)CC2)N(C)CC4`, the values for the KD in assay [1], in assay [2] and in assay [3] were 10.78 nM, 264.76 nM and 11550 nM, respectively.

Consider `Cc1ccc2c(c1)sc(-c1ccc(N(C)C)cc1)[n+]2C`, for which the binding result was “yes” in assay [4]; “weak” in assay [5]; “yes” in assay [6]; “yes” in assay [7] (higher than in LiCl); “yes” in assay [8].

As to `CCc1c(C)c2cc3nc(cc4nc(cc5c(CC)c(C)c(cc1[nH]2)n5C)C(C)=C4CCC(=O)O)C(CCC(=O)O)=C3C`, the binding entry in assay [4] is “yes”; in assay [5], “weak”; in assay [6], “yes”; in assay [7] (only slightly higher than in LiCl), “weak”; in assay [8], “yes”.

The term KD denotes the concentration at which binding is half-saturated. Higher therefore signals lower affinity.
